Experimental data published in patent US9783556B2, “Kinase inhibitors” (RESPIVERT LIMITED, priority 2012, dated 2017).

Key:
[1] = tested on: TNBS-induced colitis in mice; experiment: TNBS-induced colitis in mice; type: in vivo
Description: On Day 0 of the study TNBS (200 μL) is administered intra-colonically via a plastic catheter followed by BID dosing of the vehicle, reference or test compound for 2 or 4 days. During the study animals are weighed every day and stool observations are made and recorded as a score, based on stool consistency. At the time of sacrifice on Day 2 (or Day 4) the large intestine is removed and the length and weight recorded. Sections of the colon are taken for either MPO analysis to determine neutrophil infiltration or for histopathology involving scoring to determine disease severity.

[2] = target: p38 MAPKα isoform (MAPK14) (Homo sapiens (Human), UniProt Q16539); experiment: p38 MAPKα enzyme inhibition (Z-LYTE FRET); type: biochemical
Description: (§1) The enzyme inhibitory activities of compounds disclosed herein are determined by FRET using synthetic peptides labelled with both donor and acceptor fluorophores (Z-LYTE, Invitrogen Ltd., Paisley, UK).
The following two assay variants can be used for determination of p38 MAPKα inhibition.
The inhibitory activities of test compounds against the p38 MAPKα isoform (MAPK14: Invitrogen), are evaluated indirectly by determining the level of activation/phosphorylation of the down-stream molecule, MAPKAP-K2. The p38 MAPKα protein (80 ng/mL, 2.5 μL) is mixed with the test compound (2.5 μL of either 4 μg/mL, 0.4 μg/mL, 0.04 μg/mL or 0.004 μg/mL) for 2 hr at RT. […] The mixture is incubated for 1 hr at RT. Development reagent (protease, 5 μL) is added for 1 hr prior to detection in a fluorescence microplate reader (Varioskan® Flash, ThermoFisher Scientific).
This method follows the same steps as Method 1 above, but utilises a higher concentration of the p38 MAPKα protein (2.5 μL of 200 ng/mL protein instead of 2.5 μL of 80 ng/mL protein) for mixing with the test compound.
(§2) In all cases, the site-specific protease cleaves non-phosphorylated peptide only and eliminates the FRET signal. Phosphorylation levels of each reaction are calculated using the ratio of coumarin emission (donor) over fluorescein emission (acceptor), for which high ratios indicate high phosphorylation and low ratios indicate low phosphorylation levels. The percentage inhibition of each reaction is calculated relative to non-inhibited control and the 50% inhibitory concentration (IC50 value) is then calculated from the concentration-response curve.

c-Src = c-Src (Homo sapiens (Human), UniProt P12931); experiment: c-Src enzyme inhibition (Z-LYTE FRET); type: biochemical
Description: as §1
(§3) The inhibitory activities of compounds of the invention against c-Src and Syk enzymes (Invitrogen), are evaluated in a similar fashion to that described hereinabove. The relevant enzyme (3000 ng/mL or 2000 ng/mL respectively, 2.5 μL) is incubated with the test compound (either 4 μg/mL, 0.4 μg/mL, 0.04 μg/mL, or 0.004 μg/mL, 2.5 μL each) for 2 hr at RT. The FRET peptides (8 μM, 2.5 μL), and appropriate ATP solutions (2.5 μL, 800 μM for c-Src, and 60 μM ATP for Syk) are then added to the enzymes/compound mixtures and incubated for 1 hr. Development reagent (protease, 5 μL) is added for 1 hr prior to detection in a fluorescence microplate reader (Varioskan® Flash, ThermoFisher Scientific).
as §2

Syk = Syk (Homo sapiens (Human), UniProt P43405); experiment: Syk enzyme inhibition (Z-LYTE FRET); type: biochemical
Description: as §1, §3, §2

GSK 3α = GSK 3α (Homo sapiens (Human), UniProt P49840); experiment: GSK 3α enzyme inhibition (Z-LYTE FRET); type: biochemical; conditions: read-out: IC50 Values for Enzyme Inhibition GSK3α
Description: as §1
The following two assay variants can be used for determination of GSK 3α inhibition.
The inhibitory activities of compounds of the invention against the GSK 3α enzyme isoform (Invitrogen), are evaluated by determining the level of activation/phosphorylation of the target peptide. The GSK3-α protein (500 ng/mL, 2.5 μL) is mixed with the test compound (2.5 μL at either 4 μg/mL, 0.4 μg/mL, 0.04 μg/mL, or 0.004 μg/mL) for 2 hr at RT. The FRET peptide (8 μM, 2.5 μL), which is a phosphorylation target for GSK3α, and ATP (40 μM, 2.5 μL) are then added to the enzyme/compound mixture and the resulting mixture incubated for 1 hr. Development reagent (protease, 5 μL) is added for 1 hr prior to detection in a fluorescence microplate reader (Varioskan® Flash, ThermoFisher Scientific).
as §2
This method follows the same steps as Method 1 above, but utilises a shorter period of mixing of the test compound (105 minutes instead of 2 hours) with the GSK3-α protein.

PBMCs [3] = experiment: LPS-induced TNFα/IL-8 release in PBMC cells; type: cell-based; conditions: Homo sapiens, LPS-stimulated PBMCs, IL-8, read-out: IC50 Values for Inhibition of Cytokine Release PBMCs IL-8
Description: Peripheral blood mononuclear cells (PBMCs) from healthy subjects are separated from whole blood using a density gradient (Lymphoprep, Axis-Shield Healthcare). The PBMCs are seeded in 96 well plates and treated with compounds at the desired concentration for 2 hours before addition of 1 ng/mL LPS (Escherichia Coli 0111:B4 from Sigma Aldrich) for 24 hours under normal tissue culture conditions (37° C., 5% CO2). The supernatant is harvested for determination of IL-8 and TNFα concentrations by sandwich ELISA (Duo-set, R&D systems) and read on the fluorescence microplate reader (Varioskan® Flash, ThermoFisher Scientific). The concentration at 50% inhibition (IC50) of IL-8 and TNFα production is calculated from the dose response curve.

PBMCs [4] = experiment: IL-2 and IFN gamma release in CD3/CD28 stimulated PBMC cells; type: cell-based; conditions: Homo sapiens
Description: PBMCs from healthy subjects are separated from whole blood using a density gradient (Lymphoprep, Axis-Shield Healthcare). Cells are added to a 96 well plate pre-coated with a mixture of CD3/CD38 monoclonal antibodies (0.3 μg/mL eBioscience and 3 μg/mL BD Pharmingen respectively). Compound at the desired concentration is then added to the wells and the plate left for 3 days under normal tissue culture conditions. Supernatants are harvested and IL-2 and IFN gamma release determined by Sandwich ELISA (Duo-set, R&D System). The IC50 is determined from the dose response curve.

HT29 cells = experiment: IL-1β-induced IL-8 release in HT29 cells; type: cell-based; conditions: Homo sapiens, HT-29, IL-1β-stimulated HT29 cells, read-out: IC50 Values for Inhibition of Cytokine Release HT29 cells IL-8
Description: HT29 cells, a human colon adenocarcinoma cell line, are plated in a 96 well plate (24 hrs) and pre-treated with compounds at the desired concentration for 2 hours before addition of 5 ng/mL of IL-1β (Abcam) for 24 hours. Supernatants are harvested for IL-8 quantification by Sandwich ELISA (Duo-set, R&D System). The IC50 is determined from the dose response curve.

[5] = TNBS mice, conducted over 2 days

Sequence of GSK 3α (P49840 whole entry): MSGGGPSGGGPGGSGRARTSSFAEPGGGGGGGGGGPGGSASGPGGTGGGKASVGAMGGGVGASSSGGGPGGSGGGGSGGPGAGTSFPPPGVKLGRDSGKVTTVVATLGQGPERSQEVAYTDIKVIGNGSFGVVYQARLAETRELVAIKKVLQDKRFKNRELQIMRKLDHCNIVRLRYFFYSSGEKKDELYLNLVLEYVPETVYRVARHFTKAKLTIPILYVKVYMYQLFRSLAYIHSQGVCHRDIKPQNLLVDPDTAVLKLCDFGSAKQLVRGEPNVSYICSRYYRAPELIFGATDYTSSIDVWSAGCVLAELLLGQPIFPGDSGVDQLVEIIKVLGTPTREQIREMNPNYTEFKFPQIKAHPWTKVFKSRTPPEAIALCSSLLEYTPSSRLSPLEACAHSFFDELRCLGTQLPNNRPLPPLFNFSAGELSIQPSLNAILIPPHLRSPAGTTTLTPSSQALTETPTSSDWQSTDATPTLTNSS
Sequence of c-Src (P12931 whole entry, looked up): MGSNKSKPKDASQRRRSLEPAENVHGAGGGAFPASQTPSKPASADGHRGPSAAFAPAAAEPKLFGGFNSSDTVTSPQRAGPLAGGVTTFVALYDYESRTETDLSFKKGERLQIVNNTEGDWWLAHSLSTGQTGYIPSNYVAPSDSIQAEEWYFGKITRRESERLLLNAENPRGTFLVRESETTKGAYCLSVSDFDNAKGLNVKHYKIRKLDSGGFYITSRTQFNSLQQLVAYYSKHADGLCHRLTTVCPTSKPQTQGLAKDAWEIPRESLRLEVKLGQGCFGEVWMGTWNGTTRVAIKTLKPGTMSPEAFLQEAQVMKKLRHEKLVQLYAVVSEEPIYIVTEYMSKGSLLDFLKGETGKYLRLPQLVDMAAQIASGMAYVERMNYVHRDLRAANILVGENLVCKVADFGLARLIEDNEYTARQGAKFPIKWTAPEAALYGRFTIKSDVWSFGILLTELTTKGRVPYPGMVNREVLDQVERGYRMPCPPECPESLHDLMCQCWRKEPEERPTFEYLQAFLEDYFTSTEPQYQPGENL
Sequence of p38 MAPKα isoform (MAPK14) (Q16539 whole entry, canonical isoform): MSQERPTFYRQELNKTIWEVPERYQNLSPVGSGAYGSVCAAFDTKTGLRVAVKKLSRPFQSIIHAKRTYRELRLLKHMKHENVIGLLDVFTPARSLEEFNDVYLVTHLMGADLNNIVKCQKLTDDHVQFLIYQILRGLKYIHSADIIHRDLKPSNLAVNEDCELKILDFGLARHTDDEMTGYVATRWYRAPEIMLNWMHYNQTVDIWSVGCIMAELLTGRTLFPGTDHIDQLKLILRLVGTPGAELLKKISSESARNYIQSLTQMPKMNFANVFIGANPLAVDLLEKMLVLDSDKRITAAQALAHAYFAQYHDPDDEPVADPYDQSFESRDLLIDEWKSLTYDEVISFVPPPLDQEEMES

Compound	Ulcer grade ([1]; TNBS mice, reference item, dose not given, vehicle 3.7 ± 0.3)	LP inflammation ([1]; TNBS mice, reference item, dose not given, vehicle 4.1 ± 0.2)	IC50 [2]	IC50 (c-Src)	IC50 (Syk)	IC50 (GSK 3α)	IC50 (PBMCs [3])	IC50 (PBMCs [4]; IFNγ, read-out: IC50 Values for Inhibition of Cytokine Release PBMCs IFNγ)	IC50 (PBMCs [4]; IL-2, read-out: IC50 Values for Inhibition of Cytokine Release PBMCs IL-2)	IC50 (HT29 cells)	Ulcer grade ([1]; TNBS mice, 1 mg/kg oral BID, 2 days, vehicle 3.7 ± 0.3, non-diseased 0 ± 0)	LP inflammation ([1]; TNBS mice, 1 mg/kg oral BID, 2 days, vehicle 4.1 ± 0.2, non-diseased 0.3 ± 0.2)	Ulcer grade ([1]; TNBS mice, 5 mg/kg oral BID, 2 days, vehicle 3.7 ± 0.3, non-diseased 0 ± 0)	LP inflammation ([1]; TNBS mice, 5 mg/kg oral BID, 2 days, vehicle 4.1 ± 0.2, non-diseased 0.3 ± 0.2)	activity in in vivo model of colonic inflammation (histopathology analysis) [1, 5]	inflammatory cell infiltrate in the reticular and laminar propria zone [1, 5]	ulcer grade and epithelial repair compared to the vehicle control ([1]; dosed orally at 5 mg/kg)
Nc1ccc(O)c(C(=O)O)c1 [Example 5-ASA, 5-aminosalicylic acid, reference compound]	3.0 ± 0.5	2.3 ± 0.3															
COCCOCCOCCOc1cc(Nc2nccc(Oc3ccc(NC(=O)Nc4cc([Si](C)(C)C)nn4-c4ccc(C)cc4)c4ccccc34)n2)cc(OC)c1 [Example 21, 1-(4-((2-((3-Methoxy-5-(2-(2-(2-methoxyethoxyl)ethoxy)ethoxy)phenyl)amino)pyrimidin-4-yl)oxy)naphthalen-1-yl)-3-(1-(p-tolyl)-3-(trimethylsilyl)-1H-pyrazol-5-yl)urea]			204 nM	17 nM	89 nM	11600 nM	2 nM	2 nM	137 nM	2 nM	3.3 ± 0.5	3.8 ± 0.3	3.2 ± 0.4	2.7 ± 0.3	significant activity	marked reduction	marked improvements
